US8227510B2, “Combine use of pterostilbene and quercetin for the production of cancer treatment medicaments” (Universitat de Valencia, priority 2004, dated 2012)
Marks after values point to notes of the source that are not given here.

How the values were obtained:
B16M-F10 cells / HSE [1] = assay: In-vitro invasion of the monolayer of hepatic endothelial cells by B16M-F10 cells; format: cell-based, mice; settings: t-RESV 12 μM, t-PTER 40 μM, QUER 20 μM; 5 days culture; none 157 ± 17
Method: The test of invasion of the endothelial cell monolayer by B16M-F10 cells was carried out in accordance with the method of Ohigashi et al. (23) with some modifications. The HSE cells were seeded on culture plates with grids coated with gelatin (1%). When the cells attained confluence, the culture medium was replaced with freshly prepared medium. After 2 hours of incubation, the cultures were washed with DMEM and then the B16M-F10 cells were seeded on the HSE cells, maintaining the culture for 5 days. The invasion capacity of the B16M-F10 cells was measured by counting the number of colonies per 1 cm^2 formed under the HSE monolayer using a phase-contrast microscope.
HSE cells, previously cultured for 24 hours [±polyphenol(s), added 12 hours from seeding and removed by washing 60 minutes later], were cocultured with B16M-F10 cells previously cultured for 72 hours [±polyphenol(s), as in FIG. 2]. Cytokines [100 units of TNF-/ml and 50 units of IFN-/ml, see (20)] or the vehicle (physiological saline) were added to the culture media 12 hours before starting the cocultures. The proportion of adhesion of the tumor cells to the HSE was ˜1:1 in the cultures treated with cytokines in the absence of polyphenols (this value was assigned an adhesion level of 100%). In the experiments of adhesion between B16M-F10 cells and endothelial cells, 20 minutes after adding the B16M-F10 to the HSE, the plates were washed in the manner described in the methodology. In the tests of endothelium-induced cytotoxicity on the B16M-F10 cells, the tumor damage (expressed as the percentage of tumor cells that lost viability during the incubation period of 4-6 hours, see the methodology) was determined after 6 hours of incubation. During the 6-hour incubation period, the percentage viability of the HSE cells was 99-100% in all cases. All of the tests were carried out in the absence or in the presence of t-RESV (12 μM), t-PTER (40 μM), and/or QUER (20 μM). […]

B16M-F10 cells / HSE [2] = assay: HSE-induced cytotoxicity on adhering B16M-F10 cells in vitro; format: cell-based, mice; settings: for Tumor cells Cytotoxicity (% of adhering): t-RESV 12 μM, t-PTER 40 μM, QUER 20 μM, after 6 hours of incubation, none 15 ± 2
Text: C57BL/6J mice were used (male, 10 to 12 weeks old) from IFFA Credo (L'Arbreole, France). The hepatic sinusoidal endothelium (HSE) was separated and identified as described previously (20). The sinusoidal cells were separated in a gradient of 17.5% metrizamide (w/v). The HSE cultures were established and maintained in pyrogen-free DMEM supplemented as described previously for the B16M-F10 cells. Differential adhesion of the endothelial cells to the collagen matrix and washing permitted complete removal of other types of sinusoidal cells (Kupffer's cells, astrocytes, lymphocytes) from the culture flasks.
The B16M-F10 cells were labeled with 2′,7′-bis-(2-carboxyethyl)-5-(and -6)-carboxyfluorescein acetoxymethyl ester (BCECF-AM; Moleculer Probes, Eugene, Oreg., USA) (10^6 cells were incubated for 20 minutes at 37° C. in 1 ml of DMEM buffered with HEPES that contained 50 μg of BCECF-AM and 5 μl of DMSO). After washing, the cells that contained BCECF-AM were resuspended in DMEM buffered with HEPES without phenol red at a concentration of 2.5×10^6 cells/ml and were added (0.2 ml/well) to the endothelial cell culture (seeded 24 hours previously), as well as to wells of plastic and controls previously treated with collagen. The plates were then incubated at 37° C. and, 20 minutes later, the wells were washed three times with fresh medium, and then their fluorescence was read using a Fluoroskan Ascent FL (Labsystems, Manchester, UK). The number of adhering tumor cells was quantified with arbitrary fluorescence units based on the percentage relative to the initial number of B16M-F10 cells added to the HSE culture (20). The damage caused to the B16M-F10 cells during their adhesion in vitro to the HSE was evaluated as described previously (21) using tumor cells labeled with calcein-AM (Molecular Probes, Eugene, Oreg., USA). The integrity of the B16M-F10 cells cultivated on their own was evaluated by exclusion of trypan blue and measuring the lactate dehydrogenase released to the extracellular medium (22). The other reagents used in the tumoral cytotoxicity experiments were from Sigma.
Recombinant murine TNF- (2×10^7 U/mg of protein) and recombinant murine interferon-(IFN-; 10^5 U/mg of protein) were obtained from Sigma. […]
HSE cells, previously cultured for 24 hours [±polyphenol(s), added 12 hours from seeding and removed by washing 60 minutes later], were cocultured with B16M-F10 cells previously cultured for 72 hours [±polyphenol(s), as in FIG. 2]. […] In the tests of endothelium-induced cytotoxicity on the B16M-F10 cells, the tumor damage (expressed as the percentage of tumor cells that lost viability during the incubation period of 4-6 hours, see the methodology) was determined after 6 hours of incubation. […]

B16M-F10 cells = assay: Inhibition in vitro of the growth of B16M-F10 cells; format: cell-based
Method: B16M-F10 cells were cultured in Dulbecco's modified Eagle's medium (DMEM; Gibco Labs., Grand Island, N.Y., USA), pH 7.4, supplemented with 10% fetal serum (Gibco), HEPES 10 mM, NaHCO3 40 mM, 100 U/ml of penicillin and 100 μg/ml of streptomycin (20).
The B16M-F10 melanoma, highly aggressive, is a model that is widely used for investigating metastatic spread and tissue invasion (21), and for this reason was chosen for our studies. In the first group of experiments, we studied the effect in vitro of t-PTER+QUER on the growth of B16M-F10 cells. To reproduce the conditions in vivo after i.v. administration, we incubated B16M-F10 cells in the presence of t-PTER (40 μM) and/or QUER (20 μM) for a limited period (60 minutes) (this represents a value that approximates to the average of the concentrations of PTER and QUER measured in the plasma during the first hour after i.v. administration of 20 mg/kg of each polyphenol (FIG. 2). For comparison, we also used t-RESV (12 μM; selection of this concentration was based on a similar criterion, see the data cited in ref. 14). The polyphenols were added to the incubation medium every 24 hours and, as mentioned, they were only present for 60 minutes.
Also for comparison, we incubated B16M-F10 cells in the presence of t-PTER+QUER at concentrations representing an approximate average value of the total level of each polyphenol measured in the plasma in the first hour after oral administration (11 μM of PTER and 1 μM of QUER) (see Table 1). Both polyphenols, as free forms, were constantly present in the incubation medium.
FIG. 2. Inhibition in vitro of the growth of B16M-F10 cells by brief exposure to resveratrol (RESV), pterostilbene (PTER) and/or quercetin (QUER). All the points are mean values±SD corresponding to 5-6 independent experiments. *P<0.05, **P<0.01 compared with the control values.

[3] = t-PTER 40 μM, QUER 20 μM, t-RESV 12 μM, added every 24 hours, present for 60 minutes

## COc1cc(/C=C/c2ccc(O)cc2)cc(OC)c1 [PTER, pterostilbene]
B16M-F10 cells / HSE [1]
  Number of colonies penetrated per cm^2: 89 ± 9** per cm^2
B16M-F10 cells / HSE [2]
  Tumor cells Cytotoxicity (% of adhering): 19 ± 3* % of adhering
B16M-F10 cells; [3]
  inhibition of the growth of B16M-F10: 40%

## O=c1c(O)c(-c2ccc(O)c(O)c2)oc2cc(O)cc(O)c12 [QUER, quercetin]
B16M-F10 cells / HSE [1]
  Number of colonies penetrated per cm^2: 106 ± 15** per cm^2
B16M-F10 cells / HSE [2]; brief exposure (60 minutes)
  increase of the death of B16M-F10 cells induced by the HSE: ~48%
B16M-F10 cells / HSE [2]
  Tumor cells Cytotoxicity (% of adhering): 52 ± 6** % of adhering
B16M-F10 cells; t-PTER 11 μM and/or QUER 1 μM, constantly present in the medium
  effect on growth of B16M-F10 cells at concentrations found after oral administration: did not have a significant effect
B16M-F10 cells; [3]
  inhibition at 20 µM: 19%

## Oc1ccc(C=Cc2cc(O)cc(O)c2)cc1 [RESV, resveratrol, reference compound]
B16M-F10 cells / HSE [1]
  Number of colonies penetrated per cm^2: 104 ± 12** per cm^2
B16M-F10 cells / HSE [2]
  Tumor cells Cytotoxicity (% of adhering): 12 ± 3 % of adhering
B16M-F10 cells; [3]
  inhibition of the growth of B16M-F10: did not have a significant effect
B16M-F10 cells; t-RESV 12 μM added to t-PTER 40 μM + QUER 20 μM
  effect of t-RESV on the percentage inhibition of growth promoted by t-PTER+QUER: did not significantly affect
